According to ChEMBL document CHEMBL4196240, “Structurally Diverse Sesquiterpenoids from the Endangered Ornamental Plant Michelia shiluensis” (J Nat Prod, 2018):

How the values were obtained:
[1] = test system: MCF7; experiment: Cytotoxicity against human MCF7 cells after 24 hrs by MTS assay; format: functional, cell-based; conditions: MCF7, 24 h
[2] = test system: A549; experiment: Cytotoxicity against human A549 cells after 24 hrs by MTS assay; format: functional, cell-based; conditions: A549, 24 h
[3] = biological target: T1, Tyrosine-protein phosphatase non-receptor type 1 (Homo sapiens, UniProt P18031); experiment: Inhibition of recombinant human GST-tagged PTP1B catalytic domain using para-nitrophenyl phosphate as substrate
T1 sequence (P18031 whole entry): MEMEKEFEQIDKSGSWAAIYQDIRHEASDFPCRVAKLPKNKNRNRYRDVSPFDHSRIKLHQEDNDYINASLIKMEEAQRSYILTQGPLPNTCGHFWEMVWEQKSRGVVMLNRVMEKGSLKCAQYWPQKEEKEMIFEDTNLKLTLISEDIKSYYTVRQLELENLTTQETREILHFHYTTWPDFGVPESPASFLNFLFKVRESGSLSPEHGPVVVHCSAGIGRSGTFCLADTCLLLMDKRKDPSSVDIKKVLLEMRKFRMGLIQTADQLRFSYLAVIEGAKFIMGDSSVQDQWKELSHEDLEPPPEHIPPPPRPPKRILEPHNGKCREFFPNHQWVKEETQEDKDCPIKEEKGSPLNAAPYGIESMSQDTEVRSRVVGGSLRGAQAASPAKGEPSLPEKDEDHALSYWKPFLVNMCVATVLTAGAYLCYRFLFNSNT

Compound: CC[C@]1(O)C(=O)O[C@H]2[C@H]1[C@H](OC(C)=O)C/C(C)=C/CC[C@@]1(C)O[C@@H]21
- IC50 [1]: 45.7 µM
- IC50 [2]: > 200 µM

Compound: CC(=O)CC[C@@H]1C[C@@]2(OC1(C)C)C(=O)CC[C@@]2(C)O
- IC50 [3]: 46.3 µM

Compound: COc1cccc2c1C(=O)c1c(O)c3c(c(O)c1C2=O)C[C@@](O)(C(=O)CO)C[C@@H]3O[C@H]1C[C@H](N)[C@H](O)[C@H](C)O1 [DOXORUBICIN]
- IC50 [2]: 0.21 µM

Compound: C=C1C(=O)O[C@H]2[C@H]1[C@H](OC(C)=O)C/C(C)=C/CC[C@@]1(C)O[C@@H]21
- IC50 [1]: 1.5 µM
- IC50 [2]: 7.3 µM
